Laboratory results taken from ChEMBL document CHEMBL2417377, “Hit-to-lead optimization and kinase selectivity of imidazo[1,2-a]quinoxalin-4-amine derived JNK1 inhibitors” (Bioorg Med Chem Lett, 2013).

Columns and labels:
Conditions in all cases: PC-3
[1] = molecular target: Rho-associated protein kinase 1 (Homo sapiens) (UniProt Q13464); experiment: Inhibition of ROCK1 in human PC3 cell lysates at 10 uM using desthiobiotin-tagged ATP probe AX9989 followed by trypsinization by LC/MS analysis
[2] = molecular target: Calcium/calmodulin-dependent protein kinase type II subunit gamma (Homo sapiens) (UniProt Q13555); experiment: Inhibition of CaMK2gamma in human PC3 cell lysates at 10 uM using desthiobiotin-tagged ATP probe AX9989 followed by trypsinization by LC/MS analysis
Chain of Calcium/calmodulin-dependent protein kinase type II subunit gamma (Homo sapiens) (Q13555 whole entry): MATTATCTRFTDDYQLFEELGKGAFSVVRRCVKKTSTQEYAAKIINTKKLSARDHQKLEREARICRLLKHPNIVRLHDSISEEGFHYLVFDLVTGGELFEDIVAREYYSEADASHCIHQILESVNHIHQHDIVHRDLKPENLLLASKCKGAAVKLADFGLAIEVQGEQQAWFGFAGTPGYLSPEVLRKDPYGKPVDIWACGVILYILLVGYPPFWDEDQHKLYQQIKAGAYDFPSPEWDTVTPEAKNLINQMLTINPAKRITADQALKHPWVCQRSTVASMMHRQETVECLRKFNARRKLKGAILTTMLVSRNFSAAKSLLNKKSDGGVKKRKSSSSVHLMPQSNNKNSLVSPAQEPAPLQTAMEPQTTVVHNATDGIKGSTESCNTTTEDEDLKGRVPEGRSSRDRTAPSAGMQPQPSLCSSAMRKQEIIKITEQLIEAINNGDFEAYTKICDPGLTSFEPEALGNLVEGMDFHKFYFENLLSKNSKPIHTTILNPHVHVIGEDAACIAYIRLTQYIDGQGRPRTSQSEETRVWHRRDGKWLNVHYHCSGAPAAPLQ

[3] = molecular target: PI4KA/PI4KAP2 (Homo sapiens) (UniProt P42356+A4QPH2); experiment: Inhibition of PI4KA/PI4KAP2 in human PC3 cell lysates at 10 uM using desthiobiotin-tagged ATP probe AX9989 followed by trypsinization by LC/MS analysis; type: protein-complex assay
Chain of PI4KA/PI4KAP2 (Homo sapiens) (A4QPH2 whole entry, looked up): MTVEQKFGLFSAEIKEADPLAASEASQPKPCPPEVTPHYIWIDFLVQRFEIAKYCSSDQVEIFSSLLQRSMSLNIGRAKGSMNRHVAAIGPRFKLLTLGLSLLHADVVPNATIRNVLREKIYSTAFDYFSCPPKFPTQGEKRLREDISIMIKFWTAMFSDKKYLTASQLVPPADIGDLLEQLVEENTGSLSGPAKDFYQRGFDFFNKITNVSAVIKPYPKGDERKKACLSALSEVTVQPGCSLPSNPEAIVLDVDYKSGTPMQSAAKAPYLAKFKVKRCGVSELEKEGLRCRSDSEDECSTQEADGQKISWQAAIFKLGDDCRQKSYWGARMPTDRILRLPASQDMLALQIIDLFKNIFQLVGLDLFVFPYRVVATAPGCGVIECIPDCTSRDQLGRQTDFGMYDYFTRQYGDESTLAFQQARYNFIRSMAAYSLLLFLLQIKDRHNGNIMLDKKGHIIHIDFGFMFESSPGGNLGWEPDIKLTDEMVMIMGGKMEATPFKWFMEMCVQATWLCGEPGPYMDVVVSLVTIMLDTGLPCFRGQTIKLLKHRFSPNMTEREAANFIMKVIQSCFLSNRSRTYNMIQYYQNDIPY
Chain of PI4KA/PI4KAP2 (Homo sapiens) (P42356 whole entry, looked up): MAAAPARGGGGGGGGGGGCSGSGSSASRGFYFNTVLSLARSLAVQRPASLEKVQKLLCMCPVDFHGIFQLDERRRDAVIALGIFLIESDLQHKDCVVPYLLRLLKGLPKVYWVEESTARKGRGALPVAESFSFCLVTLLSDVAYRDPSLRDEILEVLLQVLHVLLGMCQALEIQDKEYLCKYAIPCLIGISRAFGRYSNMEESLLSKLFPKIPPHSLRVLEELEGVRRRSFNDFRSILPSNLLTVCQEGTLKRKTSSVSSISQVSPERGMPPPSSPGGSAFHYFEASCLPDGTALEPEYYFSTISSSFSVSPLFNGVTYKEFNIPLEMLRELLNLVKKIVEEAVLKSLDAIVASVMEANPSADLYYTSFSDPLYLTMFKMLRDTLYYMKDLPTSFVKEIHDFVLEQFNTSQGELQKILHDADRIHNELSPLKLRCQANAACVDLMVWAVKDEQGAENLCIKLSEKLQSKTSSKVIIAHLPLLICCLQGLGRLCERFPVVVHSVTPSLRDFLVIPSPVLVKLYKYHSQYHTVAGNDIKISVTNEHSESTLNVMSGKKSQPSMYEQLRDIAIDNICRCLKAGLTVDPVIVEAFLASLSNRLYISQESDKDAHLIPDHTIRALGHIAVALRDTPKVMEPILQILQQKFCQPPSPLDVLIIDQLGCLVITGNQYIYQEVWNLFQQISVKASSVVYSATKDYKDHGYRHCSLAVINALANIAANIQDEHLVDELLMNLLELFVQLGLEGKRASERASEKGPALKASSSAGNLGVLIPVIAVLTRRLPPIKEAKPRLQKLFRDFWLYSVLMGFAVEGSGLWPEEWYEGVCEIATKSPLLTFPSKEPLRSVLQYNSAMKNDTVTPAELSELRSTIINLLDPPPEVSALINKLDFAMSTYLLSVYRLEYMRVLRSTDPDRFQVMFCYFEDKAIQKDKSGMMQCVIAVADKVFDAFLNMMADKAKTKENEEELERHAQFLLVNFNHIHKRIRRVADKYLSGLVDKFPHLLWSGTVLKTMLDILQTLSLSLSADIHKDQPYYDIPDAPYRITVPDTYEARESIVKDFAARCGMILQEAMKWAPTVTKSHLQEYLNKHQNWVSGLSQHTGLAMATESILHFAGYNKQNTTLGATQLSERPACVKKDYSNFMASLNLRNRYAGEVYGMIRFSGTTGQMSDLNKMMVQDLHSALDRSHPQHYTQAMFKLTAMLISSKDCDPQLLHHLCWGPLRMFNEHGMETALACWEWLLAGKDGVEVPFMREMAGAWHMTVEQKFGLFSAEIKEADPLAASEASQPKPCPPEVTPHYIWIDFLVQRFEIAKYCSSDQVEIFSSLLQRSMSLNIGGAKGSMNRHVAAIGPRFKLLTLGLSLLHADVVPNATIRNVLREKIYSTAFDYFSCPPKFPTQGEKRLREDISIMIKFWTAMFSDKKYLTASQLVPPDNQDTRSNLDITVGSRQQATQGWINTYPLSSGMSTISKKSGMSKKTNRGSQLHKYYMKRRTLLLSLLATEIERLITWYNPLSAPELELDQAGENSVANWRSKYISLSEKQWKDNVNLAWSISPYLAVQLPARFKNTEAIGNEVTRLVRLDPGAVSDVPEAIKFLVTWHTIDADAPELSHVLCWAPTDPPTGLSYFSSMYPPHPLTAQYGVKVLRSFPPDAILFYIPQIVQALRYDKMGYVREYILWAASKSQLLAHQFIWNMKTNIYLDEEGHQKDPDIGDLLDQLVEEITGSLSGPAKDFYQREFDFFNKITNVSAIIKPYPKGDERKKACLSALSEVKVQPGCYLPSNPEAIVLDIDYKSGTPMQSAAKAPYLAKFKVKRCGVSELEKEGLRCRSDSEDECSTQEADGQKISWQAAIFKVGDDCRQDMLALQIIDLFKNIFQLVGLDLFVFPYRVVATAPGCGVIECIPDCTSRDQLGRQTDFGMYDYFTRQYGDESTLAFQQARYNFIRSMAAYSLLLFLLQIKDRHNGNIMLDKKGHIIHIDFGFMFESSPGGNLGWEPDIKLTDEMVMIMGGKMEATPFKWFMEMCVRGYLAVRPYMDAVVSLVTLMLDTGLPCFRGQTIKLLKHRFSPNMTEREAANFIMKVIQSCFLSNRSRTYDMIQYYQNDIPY

[4] = molecular target: T1, Peripheral plasma membrane protein CASK (Homo sapiens) (UniProt O14936); experiment: Inhibition of CASK in human PC3 cell lysates at 10 uM using desthiobiotin-tagged ATP probe AX9989 followed by trypsinization by LC/MS analysis
T1 sequence (whole entry): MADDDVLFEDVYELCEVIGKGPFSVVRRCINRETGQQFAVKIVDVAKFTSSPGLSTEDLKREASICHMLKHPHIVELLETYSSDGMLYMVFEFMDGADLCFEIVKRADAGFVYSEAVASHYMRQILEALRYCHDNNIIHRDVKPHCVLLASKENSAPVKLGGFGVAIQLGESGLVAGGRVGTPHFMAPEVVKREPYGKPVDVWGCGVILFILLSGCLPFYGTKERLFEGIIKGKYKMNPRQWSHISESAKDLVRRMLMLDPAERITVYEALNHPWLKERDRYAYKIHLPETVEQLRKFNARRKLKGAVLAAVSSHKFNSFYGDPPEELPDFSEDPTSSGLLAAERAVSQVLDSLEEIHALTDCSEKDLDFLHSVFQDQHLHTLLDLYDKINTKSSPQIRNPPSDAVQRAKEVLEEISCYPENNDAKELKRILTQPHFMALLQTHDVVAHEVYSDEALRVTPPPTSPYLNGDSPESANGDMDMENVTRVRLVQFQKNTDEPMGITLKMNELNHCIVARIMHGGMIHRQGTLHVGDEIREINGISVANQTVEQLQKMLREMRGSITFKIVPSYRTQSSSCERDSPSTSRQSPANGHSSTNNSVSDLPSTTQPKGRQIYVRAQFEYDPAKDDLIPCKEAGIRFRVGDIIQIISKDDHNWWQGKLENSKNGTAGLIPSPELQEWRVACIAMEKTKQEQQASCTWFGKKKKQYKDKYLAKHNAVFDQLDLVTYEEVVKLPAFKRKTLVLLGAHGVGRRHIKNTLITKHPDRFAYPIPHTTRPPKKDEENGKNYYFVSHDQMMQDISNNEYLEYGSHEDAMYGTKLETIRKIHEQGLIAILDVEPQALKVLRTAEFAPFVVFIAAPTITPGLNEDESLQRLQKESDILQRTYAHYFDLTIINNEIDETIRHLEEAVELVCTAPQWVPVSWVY

[5] = molecular target: Serine/threonine-protein kinase 38-like (Homo sapiens) (UniProt Q9Y2H1); experiment: Inhibition of NDR2 in human PC3 cell lysates at 10 uM using desthiobiotin-tagged ATP probe AX9989 followed by trypsinization by LC/MS analysis
Chain of Serine/threonine-protein kinase 38-like (Homo sapiens) (Q9Y2H1 2-464 limits assumed): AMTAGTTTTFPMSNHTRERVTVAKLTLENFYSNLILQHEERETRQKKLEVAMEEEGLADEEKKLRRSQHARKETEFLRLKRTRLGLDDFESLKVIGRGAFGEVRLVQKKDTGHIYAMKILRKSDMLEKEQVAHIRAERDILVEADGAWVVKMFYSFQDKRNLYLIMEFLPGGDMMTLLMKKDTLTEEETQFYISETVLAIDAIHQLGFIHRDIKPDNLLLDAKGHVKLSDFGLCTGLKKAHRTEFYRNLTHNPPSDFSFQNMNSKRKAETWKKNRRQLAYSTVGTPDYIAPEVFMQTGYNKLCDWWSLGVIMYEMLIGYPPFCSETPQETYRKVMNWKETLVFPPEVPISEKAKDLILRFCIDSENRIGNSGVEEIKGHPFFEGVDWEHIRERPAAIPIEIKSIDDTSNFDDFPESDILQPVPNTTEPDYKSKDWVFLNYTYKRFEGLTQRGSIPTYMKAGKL

[6] = molecular target: Serine/threonine-protein kinase PRP4 homolog (Homo sapiens) (UniProt Q13523); experiment: Inhibition of PRP4 in human PC3 cell lysates at 10 uM using desthiobiotin-tagged ATP probe AX9989 followed by trypsinization by LC/MS analysis
[7] = molecular target: Interleukin-1 receptor-associated kinase 1 (Homo sapiens) (UniProt P51617); experiment: Inhibition of IRAK1 in human PC3 cell lysates at 10 uM using desthiobiotin-tagged ATP probe AX9989 followed by trypsinization by LC/MS analysis
[8] = molecular target: Casein kinase I isoform alpha (Homo sapiens) (UniProt P48729); experiment: Inhibition of CK1alpha in human PC3 cell lysates at 10 uM using desthiobiotin-tagged ATP probe AX9989 followed by trypsinization by LC/MS analysis
[9] = molecular target: Tyrosine-protein kinase Fer (Homo sapiens) (UniProt P16591); experiment: Inhibition of FER in human PC3 cell lysates at 10 uM using desthiobiotin-tagged ATP probe AX9989 followed by trypsinization by LC/MS analysis
[10] = molecular target: Serine/threonine-protein kinase 26 (Homo sapiens) (UniProt Q9P289); experiment: Inhibition of MST4 in human PC3 cell lysates at 10 uM using desthiobiotin-tagged ATP probe AX9989 followed by trypsinization by LC/MS analysis
[11] = molecular target: SRSF protein kinase 2 (Homo sapiens) (UniProt P78362); experiment: Inhibition of SRPK2 in human PC3 cell lysates at 10 uM using desthiobiotin-tagged ATP probe AX9989 followed by trypsinization by LC/MS analysis
[12] = molecular target: Dual specificity protein kinase CLK2 (Homo sapiens) (UniProt P49760); experiment: Inhibition of CLK2 in human PC3 cell lysates at 10 uM using desthiobiotin-tagged ATP probe AX9989 followed by trypsinization by LC/MS analysis
[13] = molecular target: CaM kinase II (Homo sapiens) (UniProt Q13557+Q13555+Q13554+Q9UQM7); experiment: Inhibition of CaMK2alpha/CaMK2beta/CaMK2delta/CaMK2gamma in human PC3 cell lysates at 10 uM using desthiobiotin-tagged ATP probe AX9989 followed by trypsinization by LC/MS analysis; type: protein assay
[14] = molecular target: DNA-dependent protein kinase catalytic subunit (Homo sapiens) (UniProt P78527); experiment: Inhibition of DNAPK in human PC3 cell lysates at 10 uM using desthiobiotin-tagged ATP probe AX9989 followed by trypsinization by LC/MS analysis
[15] = molecular target: Mitogen-activated protein kinase kinase kinase 20 (Homo sapiens) (UniProt Q9NYL2); experiment: Inhibition of ZAK in human PC3 cell lysates at 10 uM using desthiobiotin-tagged ATP probe AX9989 followed by trypsinization by LC/MS analysis

Chain of Rho-associated protein kinase 1 (Homo sapiens) (Q13464 2-1354 limits assumed): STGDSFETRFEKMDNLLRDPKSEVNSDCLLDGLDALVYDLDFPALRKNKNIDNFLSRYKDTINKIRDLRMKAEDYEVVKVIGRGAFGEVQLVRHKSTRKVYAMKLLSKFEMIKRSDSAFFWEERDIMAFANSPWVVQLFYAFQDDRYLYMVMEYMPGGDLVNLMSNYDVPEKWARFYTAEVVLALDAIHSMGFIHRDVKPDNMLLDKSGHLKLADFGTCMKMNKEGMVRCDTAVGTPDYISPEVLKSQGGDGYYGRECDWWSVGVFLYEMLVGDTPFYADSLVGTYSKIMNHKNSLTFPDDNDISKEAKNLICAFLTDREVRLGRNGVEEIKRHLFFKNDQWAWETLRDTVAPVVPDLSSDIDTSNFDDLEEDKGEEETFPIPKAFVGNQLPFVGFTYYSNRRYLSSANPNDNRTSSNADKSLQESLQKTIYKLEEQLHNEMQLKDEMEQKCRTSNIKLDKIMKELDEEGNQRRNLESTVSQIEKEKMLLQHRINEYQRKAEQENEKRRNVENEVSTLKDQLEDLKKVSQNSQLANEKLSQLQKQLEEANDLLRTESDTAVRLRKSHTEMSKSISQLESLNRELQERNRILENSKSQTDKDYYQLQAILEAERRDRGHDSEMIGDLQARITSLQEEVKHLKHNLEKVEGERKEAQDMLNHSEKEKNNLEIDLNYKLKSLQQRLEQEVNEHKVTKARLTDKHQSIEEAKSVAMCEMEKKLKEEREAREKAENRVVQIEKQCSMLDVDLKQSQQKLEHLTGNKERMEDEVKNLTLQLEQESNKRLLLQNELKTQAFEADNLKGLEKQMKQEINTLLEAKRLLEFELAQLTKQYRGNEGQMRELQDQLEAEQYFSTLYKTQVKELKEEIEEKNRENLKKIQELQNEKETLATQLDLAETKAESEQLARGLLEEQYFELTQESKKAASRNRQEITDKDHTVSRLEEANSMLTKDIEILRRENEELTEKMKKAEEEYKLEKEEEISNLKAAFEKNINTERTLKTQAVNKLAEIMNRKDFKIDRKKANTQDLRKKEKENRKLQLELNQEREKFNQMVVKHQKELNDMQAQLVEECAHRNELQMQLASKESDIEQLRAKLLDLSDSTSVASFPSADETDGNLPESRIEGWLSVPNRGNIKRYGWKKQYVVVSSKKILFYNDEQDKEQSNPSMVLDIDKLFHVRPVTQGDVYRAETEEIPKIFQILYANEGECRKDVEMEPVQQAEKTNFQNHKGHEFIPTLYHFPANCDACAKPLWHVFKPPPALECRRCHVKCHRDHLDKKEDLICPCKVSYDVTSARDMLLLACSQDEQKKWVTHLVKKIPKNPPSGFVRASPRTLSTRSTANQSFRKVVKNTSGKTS

inhibition [1] [%]	inhibition [2] [%]	inhibition [3] [%]	inhibition [4] [%]	inhibition [5] [%]	inhibition [6] [%]	inhibition [7] [%]	inhibition [8] [%]	inhibition [9] [%]	inhibition [10] [%]	inhibition [11] [%]	inhibition [12] [%]	inhibition [13] [%]	inhibition [14] [%]	inhibition [15] [%]	Compound
< 35	< 35	< 35	< 35	< 35	< 35	< 35	< 35	< 35	< 35	< 35	< 35	< 35	< 35	< 35	O=C(NC1(c2ccccc2)CC1)c1ccc2nc(N[C@H]3CC[C@H](O)CC3)c3nccn3c2c1
< 35	< 35	73.1	< 35	< 35	< 35	< 35	57.1	< 35	< 35	< 35	< 35	< 35	< 35	< 35	O=C(O)c1ccc2nc(N[C@H]3CC[C@H](O)CC3)c3nccn3c2c1
< 35	< 35	< 35	< 35	< 35	< 35	< 35	< 35	< 35	< 35	< 35	< 35	< 35	< 35	< 35	O=C(NC1(c2ccc(F)cc2)CC1)c1ccc2nc(N[C@H]3CC[C@H](O)CC3)c3nccn3c2c1
< 35	< 35	< 35	< 35	< 35	< 35	< 35	< 35	< 35	< 35	< 35	< 35	< 35	< 35	< 35	O=C(NC1(Cc2ccc(F)cc2)CC1)c1ccc2nc(N[C@H]3CC[C@H](O)CC3)c3nccn3c2c1
< 35	< 35	< 35	< 35	< 35	< 35	< 35	< 35	< 35	< 35	< 35	< 35	< 35	< 35	< 35	O=C(NC1(c2ccccc2)CCC1)c1ccc2nc(N[C@H]3CC[C@H](O)CC3)c3nccn3c2c1

More lines, now with the values behind:

Compound	inhibition [1] [%]	inhibition [2] [%]	inhibition [3] [%]	inhibition [4] [%]	inhibition [5] [%]	inhibition [6] [%]	inhibition [7] [%]	inhibition [8] [%]	inhibition [9] [%]	inhibition [10] [%]	inhibition [11] [%]	inhibition [12] [%]	inhibition [13] [%]	inhibition [14] [%]	inhibition [15] [%]
C[C@@H](NC(=O)c1ccc2nc(N[C@H]3CC[C@H](O)CC3)c3nccn3c2c1)c1ccccc1	< 35	< 35	< 35	< 35	< 35	< 35	< 35	< 35	< 35	< 35	< 35	< 35	< 35	< 35	< 35
CC[C@@H](NC(=O)c1ccc2nc(N[C@H]3CC[C@H](O)CC3)c3nccn3c2c1)c1ccccc1	< 35	48.7	< 35	< 35	< 35	< 35	< 35	< 35	< 35	< 35	< 35	< 35	46.9	< 35	< 35
CCC[C@@H](NC(=O)c1ccc2nc(N[C@H]3CC[C@H](O)CC3)c3nccn3c2c1)c1ccccc1	< 35	< 35	< 35	< 35	< 35	< 35	< 35	< 35	< 35	< 35	< 35	< 35	< 35	< 35	< 35
NC(=O)c1ccc2nc(N[C@H]3CC[C@H](O)CC3)c3nccn3c2c1	< 35	< 35	< 35	< 35	< 35	< 35	< 35	69	< 35	< 35	< 35	< 35	< 35	< 35	< 35
O=C(N[C@H](CO)c1ccccc1)c1ccc2nc(N[C@H]3CC[C@H](O)CC3)c3nccn3c2c1	< 35	< 35	< 35	< 35	< 35	< 35	< 35	< 35	< 35	< 35	< 35	< 35	< 35	< 35	< 35
CC(C)(NC(=O)c1ccc2nc(N[C@H]3CC[C@H](O)CC3)c3nccn3c2c1)c1ccccc1	< 35	< 35	< 35	< 35	< 35	< 35	< 35	< 35	< 35	< 35	< 35	< 35	< 35	< 35	< 35
C[C@H](NC(=O)c1ccc2nc(N[C@H]3CC[C@H](O)CC3)c3nccn3c2c1)c1ccccc1	< 35	< 35	< 35	< 35	< 35	< 35	< 35	< 35	< 35	< 35	< 35	< 35	< 35	< 35	< 35
